US4931352A, “Antifungal fermentation product” (Merck & Co., Inc., priority 1989, dated 1990)
Starred links: 1 amine or outer side, 2 acyl side, 3 side chain; linkers in the order of their positions; H or OH if unused. Positions of bridges follow the written chain, without caps; N, C: chain ends. Non-standard residues stand in square brackets, D forms with d. Residues, ends and D or L forms follow the SMILES beside them. ξ: configuration not given here. *: point of attachment. ξOrn(4,5-diOH) = O=C(C(CC(O)C(O)N[*:3])N[*:1])[*:2]; ξhTyr(βξ-OH,γξ-OH) = NC(C(=O)O)C(O)C(O)c1ccc(O)cc1; ξPro(3ξ-OH,4ξ-Me) = CC1CNC(C(=O)O)C1O; X2 = NC(=O)CC(O)C(N[*:1])C(=O)[*:2]; X1 = CCC(C)CC(C)CCCCCCCCC(=O)*; Hyp = O=C(O)[CH]1C[CH](O)CN1

How the values were obtained:
Candida albicans [1] = experiment: mice infected with Candida albicans; type: in vivo
[2] = test system: filamentous fungi Cochliobolus miyabeanus, Penicillium sp. (three strains), Aspergillus niger, Trichoderma sp., Trichoderma liqnorum, Alternaria solani …; experiment: disc diffusion method, filamentous fungi; type: cell-based; conditions: 25 microliter/disc, 28° C. or 37° C., 24 hours
Description: (§1) This may be seen in an antifungal assay employing a disc diffusion method against yeasts and filamentous fungi (molds).
(§2) In the disc diffusion method, seeded assay plates are first prepared in one of the following manners according to the type of organism.
Inocula for filamentous fungi are prepared by scraping the surface of stock plates maintained on potato dextrose agar with a moistened sterile dacron swab. The spores and mycelia are then suspended in 10 milliliters of sterile potato dextrose broth and adjusted to 70 percent transmission at 660 nm.
(§3) For three strains of Candida albicans and one strain of Saccharomyces cerevisiae, sterile saline is employed in place of potato dextrose broth. Assay plates are prepared by diluting the inoculum into appropriate molten agar medium, cooled to 45° C. to obtain a final concentration of 4 percent (volume/volume).
(§4) The seeded agar media thus prepared are dispensed into petri dishes for assays (11 milliliters per dish).
(§5) The samples to be tested for production of antifungal agent are applied to 6.2 mm. filter paper discs (25 microliter/disc) and air dried at 24° C. When the sample to be tested is a crude broth, it may be centrifuged prior to application. […] Following incubation, the inhibition zones are measured and recorded.

[3] = test system: yeasts Saccharomyces cerevisiae, Candida albicans, Candida rugosa, Brettanomyces bruxellensis, Torulospora hansenii, Candida guilliermondii, Candida …; experiment: disc diffusion method, yeasts; type: cell-based; conditions: 25 microliter/disc, 28° C. or 37° C., 24 hours
Description: as §1, §2
Inocula for yeasts are prepared from overnight broth cultures then diluted into potato dextrose […] to a final concentration of either 40 percent or 70 percent transmission at 660 nm.
as §3, §4
as §5, with “application. The discs bearing the material to be tested are then applied employing sterile conditions to the seeded assay plates and the samples rewet with 25 percent sterile aqueous dimethylsulfoxide (25 μl/disc).” for “application.”

Candida albicans [4] = experiment: agar dilution assay (MIC), Candida albicans; type: cell-based; conditions: C. albicans strain MY1029; possible media interference with drug activity
Description: (§6) The activity may be seen in an agar dilution assay employing a yeast nitrogen base dextrose agar medium. In carrying out the assay, Compound I was solubilized in 10 percent dimethyl sulfoxide (DMSO) supplemented with one drop of Tween 20. Twofold dilutions were made with sterile distilled water/10 percent DMSO to obtain final drug concentrations in the agar dilution assay plates ranging from 128 to 0.06 μg/ml.
(§7) The yeast cultures, maintained in yeast maltose (YM) broth, were transferred to fresh YM medium and incubated overnight at 35° C. with shaking (250 rpm). After incubation, each culture was diluted in sterile saline to yield a final concentration of 3×10^5 to 3×10^6 colony forming units (CFU)/ml.
(§8) Each prepared plate was inoculated using a Denley Multipoint Inoculator (Denley, Sussex, England) which delivers approximately 0.001 milliliter to the ar surface resulting in inoculation of from 3×10^2 to 3×10^3 CFUs. The plates were incubated at 28° C. for 48 hours. The minimum inhibitory concentrations (MICs) were recorded as the lowest concentrations of drug showing no growth or less than three CFU/spot.

in vitro = type: cell-based; conditions: mouse; fresh blood of CD-1 female mice; 25° C., two hours; highest drug concentration that did not lyse the red blood cells; tested 0.39 to 400 μg/ml in 5 percent dextrose; read-out: minimum lytic concentration (MLC)
Description: The property of Compound I of requiring concentration of drug far above the therapeutic dose levels to effect red blood cell lysis was discovered in a standard titration/hemolysis assay using fresh blood drawn from CD-1 female mice. Concentration of drug in the range of from 0.39 to 400 μg/ml in 5 percent dextrose and a drug free control were employed.
In carrying out the determination, the assay tubes prepared by mixing together 2 milliliters of appropriate drug dilution and 0.5 milliliter of red blood cell suspension were gently shaken to mix the contents and then the tubes were incubated at 25° C. for two hours. At the end of this time, the tubes were examined visually for complete or partial red blood cell hemolysis and compared to a drug free control. […] The MLC for Compound I was 400 μg/ml.

[5] = solubility in organic solvents; conditions: methanol, ethanol, dimethylformamide, dimethyl sulfoxide, ethyl acetate and the like
Candida albicans [6] = experiment: similar assay (MIC), expanded panel of 34 strains of Candida albicans; type: cell-based; conditions: 48 h; only against 5 of 34 strains of Candida albicans
Description: as §6, §7, §8
In a similar assay, Compound I was tested against an expanded panel of 34 different strains of Candida albicans and 13 different strains of Candida parapsilosis.

In the case of `CCC(C)CC(C)CCCCCCCCC(=O)NC1CC(O)C(O)NC(=O)C2C(O)C(C)CN2C(=O)C(C(O)CC(N)=O)NC(=O)C(C(O)C(O)c2ccc(O)cc2)NC(=O)C2CC(O)CN2C(=O)C(C(C)O)NC1=O` [Compound I, 1-[(4R, 5R)-4,5-dihydroxy-N^2-(10,12-dimethyl-1-oxotetradecyl)-L-ornithine]-5-(threo-3-hydroxy-L-glutamine)echinocandin B] (X1-[ξOrn(4,5-diOH)]T[Hyp][ξhTyr(βξ-OH,γξ-OH)][X2][ξPro(3ξ-OH,4ξ-Me)]; lactam 1-C; configuration not given here), the “eradication of Candida albicans from kidneys” value (Candida albicans [1]; kidneys of experimentally infected mice) was “eradicate Candida albicans from kidneys”, the “survival of mice infected with Candida albicans” value (Candida albicans [1]; mice infected with Candida albicans) was “significantly prolong the survival” and the “antifungal properties (inhibition zones)” value [2] was “good antifungal properties”. The “antifungal properties (inhibition zones)” value [3] was “good antifungal properties”, the “growth observed (footnote to MIC)” value (Candida albicans [4]) was “Substantially reduced growth was observed” and the MNTC at 2 h (in vitro) was 400 µg/mL. The “solubility in organic solvents” value [5] was “soluble” and the MIC (Candida albicans [6]) was > 1 µg/mL.
